This note sets out measurements from patent publication US20170240556A1, “BIFLUORODIOXALANE-AMINO-BENZIMIDAZOLE KINASE INHIBITORS FOR THE TREATMENT OF CANCER, AUTOIMMUNEINFLAMMATION AND CNS DISORDERS” (4SC DISCOVERY GMBH, priority 2012, published 2017).

Assay [1] has as its target Casein kinase 1 delta (CSKN1D) (Homo sapiens, UniProt P48730). Put plainly: Casein kinase assay, CK1 delta. In kind it is biochemical. As to conditions: recombinant CSKN1D 5 nM, ATP 10 μM.
Assay [2] deals with Hedgehog signaling pathway. Put plainly: Hedgehog reporter assay (Gli Reporter - NIH3T3 Cell Line). The following applies: Mus musculus; Gli reporter NIH3T3 cells, murine SHH stimulation, 24 h; read-out: HH Assay. In kind it is cell-based. On the procedure:
In order to investigate the potency of test compounds to inhibit the Hedgehog signaling pathway, a Gli-Reporter assay was performed.
The “Gli Reporter—NIH3T3 Cell Line” contains the firefly luciferase gene under the control of Gli responsive elements stably integrated into murine NIH3T3 cells (cells purchased from Amsbio). The luciferase expression correlates with activation of the hedgehog signaling pathway. This cell line is validated for its response to stimulation with murine Sonic Hedgehog and to treatment with inhibitors of the hedgehog signaling pathway. A multiplexed viability assay was used to discriminate inhibition on the pathway activity from cell toxicity.
Growth Medium: DMEM, 10% Calf Serum, 1% Penicillin/Streptomycin 500 μg/ml Geneticin (G418 Stock 50 mg/ml).
25.000 cells per well were seeded into a white 96 well plate in 100 μl growth medium and incubated over night at 37° C. and 5% CO2. After removing the supernatant the test compounds and controls (known GLI inhibitor, e.g. GANT-61) were added in different concentrations in a final volume of 45 μl and incubated for 1 h at 37° C. and 5% CO2. For the stimulation of the Hedgehog pathway 5 μl of 10 μg/ml concentrated murine sonic hedgehog (SHH) was added to the cells. A final concentration of 1 μg/ml mSHH and 0.1% DMSO was reached per well. After incubation for 24 h at 37° C. the cells were investigated for viability and reporter activity.
Viability: For the determination of the viability of the treated cells the CellTiter-Fluor Kit from Promega was used. Essentially, only proteases of viable cells are able to cleave the cell-permeant substrate Gly-Phe-AFCoumarin (GF-AFC). By this cleavage the fluorescent AFC is set free and can be detected in a fluorescence reader. For this assay 10 μl of GF-AFC substrate (CellTiter-Fluor, Promega #G6082) was diluted in 2 ml assay buffer from the CellTiter-Fluor Kit and 10 μl of this dilution was added per well to the cells and incubated for 30 min at 37° C. The fluorescence was measured with excitation at 380-400 nm and emission at 505 nm.
Reporter activity: The firefly luciferase reporter activity was detected with the ONE-Glo™ Luciferase Assay System from Promega. For this assay 50 μl ONE-Glo luciferase reagent (Promega #E6120, contains cell lysis buffer and luciferin) was added to each well and incubated at room temperature for 5 min. Luminescence was detected in a plate reader and served as a degree for reporter activity.

For assay [3], the target named is Casein kinase 1 epsilon (CSKN1E) (Homo sapiens, UniProt P49674). The experiment in a line: Casein kinase assay, CK1 epsilon. As to conditions: recombinant CSKN1E 30 nM, ATP 10 μM. In kind it is biochemical.
Chain of Casein kinase 1 epsilon (CSKN1E) (P49674 whole entry): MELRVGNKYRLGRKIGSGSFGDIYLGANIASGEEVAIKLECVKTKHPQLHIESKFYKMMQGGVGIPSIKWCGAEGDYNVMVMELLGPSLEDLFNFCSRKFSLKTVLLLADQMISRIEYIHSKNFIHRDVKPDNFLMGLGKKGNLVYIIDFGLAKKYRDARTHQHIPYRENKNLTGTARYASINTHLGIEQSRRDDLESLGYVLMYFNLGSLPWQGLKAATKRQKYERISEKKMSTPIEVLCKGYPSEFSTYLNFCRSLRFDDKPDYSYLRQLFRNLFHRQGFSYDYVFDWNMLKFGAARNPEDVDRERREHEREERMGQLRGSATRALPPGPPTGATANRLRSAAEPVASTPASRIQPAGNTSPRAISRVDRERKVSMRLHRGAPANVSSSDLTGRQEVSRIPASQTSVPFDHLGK

Chain of Casein kinase 1 delta (CSKN1D) (P48730 whole entry): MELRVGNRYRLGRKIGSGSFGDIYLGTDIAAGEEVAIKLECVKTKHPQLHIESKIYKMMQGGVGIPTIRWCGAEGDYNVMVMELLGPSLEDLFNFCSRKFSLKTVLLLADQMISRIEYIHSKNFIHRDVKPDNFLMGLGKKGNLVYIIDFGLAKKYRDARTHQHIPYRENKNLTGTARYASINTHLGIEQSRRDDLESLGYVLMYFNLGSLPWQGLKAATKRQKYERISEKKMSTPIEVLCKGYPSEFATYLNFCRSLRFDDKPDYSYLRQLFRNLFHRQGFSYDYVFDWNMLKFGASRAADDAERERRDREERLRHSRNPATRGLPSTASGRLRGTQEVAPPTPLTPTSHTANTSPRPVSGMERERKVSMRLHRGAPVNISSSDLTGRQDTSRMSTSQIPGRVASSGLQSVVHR

In the case of `O=C(Nc1nc2cc3c(cc2[nH]1)OC(F)(F)O3)c1csc(-c2cccs2)n1` [Compound 11B, N-(2,2-difluoro-5H-[1,3]dioxolo[4′,5′:4,5]benzo[1,2-d]imidazol-6-yl)-2-(thiophen-2-yl)thiazole-4-carboxamide], the figures for the IC50 in assay [1] and in assay [2] were under 200 nM and 1000 to 15000 nM, respectively.

As to `O=C(Nc1nc2cc3c(cc2[nH]1)OC(F)(F)O3)c1cccc(-c2cc[nH]n2)c1` [Compound 5B, N-(2,2-difluoro-5H-[1,3]dioxolo[4′,5′:4,5]benzo[1,2-d]imidazol-6-yl)-3-(1H-pyrazol-3-yl)benzamide], the IC50 is under 200 nM in assay [1] and 1000 to 15000 nM in assay [2].

Regarding `O=C(Nc1nc2cc3c(cc2[nH]1)OC(F)(F)O3)c1cccc(-c2noc(C3CC3)n2)c1` [Compound 147, 3-(5-cyclopropyl-1,2,4-oxadiazol-3-yl)-N-(2,2-difluoro-5H-[1,3]dioxolo[4′,5′:4,5]benzo[1,2-d]imidazol-6-yl)-benzamide], the values for the IC50 in assay [1], in assay [2] and in assay [3] were under 200 nM, 500 to 1000 nM and under 200 nM, respectively.

Consider `CN(C)c1cc(C(=O)Nc2nc3cc4c(cc3[nH]2)OC(F)(F)O4)ccn1` [Compound 125, N-(2,2-difluoro-5H-[1,3]dioxolo[4′,5′:4,5]benzo[1,2-d]imidazol-6-yl)-2-(dimethylamino)isonicotinamide], for which the IC50 in assay [1] is under 200 nM; in assay [2], 1000 to 15000 nM.

On to `O=C(Nc1nc2cc3c(cc2[nH]1)OC(F)(F)O3)c1csc(-c2ccoc2)n1` [Compound 16B, N-(2,2-difluoro-5H-[1,3]dioxolo[4′,5′:4,5]benzo[1,2-d]imidazol-6-yl)-2-(furan-3-yl)thiazole-4-carboxamide], for which the IC50 in assay [1] is under 200 nM; in assay [2] it was 1000 to 15000 nM.

Turning to `O=C(Nc1nc2cc3c(cc2[nH]1)OC(F)(F)O3)c1csc(-c2ccco2)n1` [Compound 6B, N-(2,2-difluoro-5H-[1,3]dioxolo[4′,5′:4,5]benzo[1,2-d]imidazol-6-yl)-2-(furan-2-yl)thiazole-4-carboxamide], the IC50 was under 200 nM in assay [1], 500 to 1000 nM in assay [2] and under 200 nM in assay [3].

With `O=C(Nc1nc2cc3c(cc2[nH]1)OC(F)(F)O3)c1cnccn1` [Compound 27, N-(2,2-difluoro-5H-[1,3]dioxolo[4′,5′:4,5]benzo[1,2-d]imidazol-6-yl)pyrazine-2-carboxamide], the IC50 in assay [1] is over 1000 nM; in assay [2], 1000 to 15000 nM; in assay [3], over 1000 nM.

With `CN(C)c1cncc(C(=O)Nc2nc3cc4c(cc3[nH]2)OC(F)(F)O4)c1` [Compound 7B, N-(2,2-difluoro-5H-[1,3]dioxolo[4′,5′:4,5]benzo[1,2-d]imidazol-6-yl)-5-(dimethylamino)nicotinamide], the values for the IC50 in assay [1] and in assay [2] were under 200 nM and 1000 to 15000 nM, respectively.

Consider `Nc1nccnc1C(=O)Nc1nc2cc3c(cc2[nH]1)OC(F)(F)O3` [Compound 7, 3-amino-N-(2,2-difluoro-5H-[1,3]dioxolo[4′,5′:4,5]benzo[1,2-d]imidazol-6-yl)pyrazine-2-carboxamide], for which the IC50 in assay [1] was over 1000 nM; in assay [2] it was 1000 to 15000 nM; in assay [3], over 1000 nM.

With `O=C(Nc1nc2cc3c(cc2[nH]1)OC(F)(F)O3)c1cc(-c2cccs2)on1` [Compound 138, N-(2,2-difluoro-5H-[1,3]dioxolo[4′,5′:4,5]benzo[1,2-d]imidazol-6-yl)-5-(thiophen-2-yl)isoxazole-3-carboxamide], the IC50 in assay [1] is under 200 nM; in assay [2] it was 500 to 1000 nM; in assay [3], under 200 nM.

Take `COc1cccc(CC(=O)Nc2nc3cc4c(cc3[nH]2)OC(F)(F)O4)c1` [Compound 3B, N-(2,2-difluoro-5H-[1,3]dioxolo[4′,5′:4,5]benzo[1,2-d]imidazol-6-yl)-2-(3-methoxyphenyl)acetamide]: the IC50 in assay [1] was under 200 nM; in assay [2], 500 to 1000 nM; in assay [3], under 200 nM.

With `O=C(Nc1nc2cc3c(cc2[nH]1)OC(F)(F)O3)c1cccc(N2CCCC2)c1` [Compound 122, N-(2,2-difluoro-5H-[1,3]dioxolo[4′,5′:4,5]benzo[1,2-d]imidazol-6-yl)-3-(pyrrolidin-1-yl)benzamide], the IC50 in assay [1] is under 200 nM; in assay [2], at most 500 nM.

For `Cc1cc(C)n(-c2cccc(C(=O)Nc3nc4cc5c(cc4[nH]3)OC(F)(F)O5)c2)n1` [Compound 130, N-(2,2-difluoro-5H-[1,3]dioxolo[4′,5′:4,5]benzo[1,2-d]imidazol-6-yl)-3-(3,5-dimethyl-1H-pyrazol-1-yl)benzamide], the figures for the IC50 in assay [1], in assay [2] and in assay [3] were under 200 nM, at most 500 nM and under 200 nM, respectively.

As for `CN(C)c1cccc(C(=O)Nc2nc3cc4c(cc3[nH]2)OC(F)(F)O4)c1` [Compound 102, N-(2,2-difluoro-5H-[1,3]dioxolo[4′,5′:4,5]benzo[1,2-d]imidazol-6-yl)-3-(dimethylamino)benzamide], the IC50 in assay [1] is under 200 nM; in assay [2], 500 to 1000 nM.

As for `O=C(Nc1nc2cc3c(cc2[nH]1)OC(F)(F)O3)c1csc(-c2ccc3c(c2)CCO3)n1` [Compound 3, N-(2,2-difluoro-5H-[1,3]dioxolo[4′,5′:4,5]benzo[1,2-d]imidazol-6-yl)-2-(2,3-dihydrobenzofuran-5-yl)thiazole-4-carboxamide], the IC50 in assay [1] is under 200 nM; in assay [2], at most 500 nM; in assay [3] it was 200 to 1000 nM.

Regarding `COc1ccc(C(=O)Nc2nc(C(=O)Nc3nc4cc5c(cc4[nH]3)OC(F)(F)O5)cs2)cc1` [Compound 69, N-(2,2-difluoro-5H-[1,3]dioxolo[4′,5′:4,5]benzo[1,2-d]imidazol-6-yl)-2-(4-methoxybenzamido)thiazole-4-carboxamide], the IC50 in assay [1] was under 200 nM; in assay [3], 200 to 1000 nM.

Take `O=C(Nc1nc2cc3c(cc2[nH]1)OC(F)(F)O3)c1csc([N+](=O)[O-])c1` [Compound 30, N-(2,2-difluoro-5H-[1,3]dioxolo[4′,5′:4,5]benzo[1,2-d]imidazole-6-yl)-5-nitrothiophene-3-carboxamide]: the IC50 in assay [1] and in assay [3] was under 200 nM throughout.
